Measured values as given in patent US10596223B2, “JNK inhibitor molecules for treatment of various diseases” (Xigen Inflammation Ltd., priority 2011, dated 2020).
Square brackets hold non-standard residues; d marks the D form. Peptide text beside a SMILES is read from it.

How the values were obtained:
[1] = Stability (half-life) in human serum, intact peptide by UPLC-MS; assay type: in vitro ADME; details: human serum (50% in FIG. 5; 10 and 50% in PBS), 0.1 mM peptide
Experimental: FIG. 5: Stability of JNK inhibitors with SEQ ID NOs: 172, 196 and 197 in 50% human serum. The JNK inhibitor with SEQ ID NO: 196 was totally degraded into amino acids residues within 6 hours (A). The JNK inhibitor with SEQ ID NO: 172 was completely degraded only after 14 days (B). The JNK inhibitor with SEQ ID NO: 197 was stable at least up to 30 days (B).
The JNK inhibitors with the sequence of SEQ ID NOs: 196, 197, and 172 (0.1 mM final concentration) were digested in human serum (10 and 50% in PBS 1×). The experiment was performed as described by Tugyi et al. (Proc Natl Acad Sci USA, 2005, 413-418). The remaining intact peptide was quantified by UPLC-MS. Stability was assessed for SEQ ID NOs: 196, 197, and 172 identically but in two separate assays. While the JNK inhibitor with SEQ ID NO: 196 was totally degraded into amino acids residues within 6 hours, the JNK inhibitor with SEQ ID NO: 172 was completely degraded only after 14 days. The JNK inhibitor with SEQ ID NO: 197 was still stable after 30 days.

[2] = test system: endotoxins-induced uveitis albino rat model; assay: Endotoxins induced uveitis (EIU), single intravenous injection, clinical scoring 24 hours after LPS; assay type: in vivo; design: key to clinical score of ocular inflammation, mean score (mean±SEM) / clinical score of ocular inflammation, median: ocular inflammation score per eye, 0 = none to 4 = intense (+1 fibrin); details: for clinical score of ocular inflammation, mean score (mean±SEM) / clinical score of ocular inflammation, median: 24 hours after LPS
Experimental: FIG. 28 Clinical evaluation of administration of different amounts of the JNK inhibitor according to SEQ ID NO: 172 in albino rats after intravenous administration (endotoxins induced uveitis model). Form left to right: Vehicle, 0.015 mg/kg (i.v.) of SEQ ID NO: 172; 0.18 mg/kg (i.v.) of SEQ ID NO: 172; 1.8 mg/kg (i.v.) of SEQ ID NO: 172, 2 mg/kg (i.v.) of SEQ ID NO: 197 and 20 μg dexamethasone (administered directly by subconjunctival injection to the eye). Indicated is the clinical score (mean and the SEM).
The anti-inflammatory potency of the JNK inhibitor of SEQ ID NO: 172 was tested in albino rats following intravenous administration (EIU/LPS model). The aim of this study was to determine the effects of single intravenous injections of SEQ ID NO: 172 (0.015, 0.18, and 1.80 mg/kg) on the inflammatory response in an endotoxins-induced uveitis albino rat model and to compare these affects to those obtained with prior art JNK inhibitor of SEQ ID NO: 197 (2 mg/kg). As a further control served phosphate sodic dexamethasone.
Sixty (60) male Lewis rats were randomly divided into six (6) groups of ten (10) animals each. EIU was induced by footpad injection of lipopolysaccharide (LPS, 1 mg/kg). NaCl (0.9%), SEQ ID NO: 197 at 2 mg/kg and SEQ ID NO: 172 at three concentrations (1.80 mg/kg, 0.18 mg/kg and 0.015 mg/kg) were administered by intravenous injection. Phosphate sodic dexamethasone ([…]) was administered by sub-conjunctival injection in both eyes. 24 hours after LPS injection, inflammatory response was evaluated by clinical scoring.
The intensity of clinical ocular inflammation was scored on a scale from 0 to 4 for each eye: • Grade 0 no inflammation • Grade 1 slight iris and conjunctival vasodilation • Grade 2 moderate iris and conjunctival vasodilation with flare • Grade 3 intense iris and conjunctival vasodilation with flare • Grade 4 intense inflammatory reaction • (+1) fibrin formation and seclusion of pupils

Q: Which results are given for `CC(C)C[C@H](NC(=O)[C@H](CC(N)=O)NC(=O)[C@H](CC(C)C)NC(=O)[C@@H](NC(=O)[C@@H](C)NC(=O)[C@@H]1CCCN1C(=O)[C@H](CCCNC(=N)N)NC(=O)[C@@H](CCCCN)NC(=O)[C@@H]1CCCN1C(=O)[C@H](CCCNC(=N)N)NC(=O)[C@@H](CCCNC(=N)N)NC(=O)[C@H](CCCNC(=N)N)NC(=O)[C@H](CCCNC(=N)N)NC(=O)[C@H](CCC(N)=O)NC(=O)[C@@H](CCCNC(=N)N)NC(=O)[C@H](CCCNC(=N)N)NC(=O)[C@H](CCCCN)NC(=O)[C@H](CCCCN)NC(=O)[C@H](N)CCCNC(=N)N)[C@@H](C)O)C(=O)N[C@H](Cc1ccccc1)C(N)=O` [SEQ ID NO: 172, rKKRrQRRrRPkRPaTLNLf] (H-[dR]KKR[dR]QRR[dR]RP[dK]RP[dA]TLNL[dF]-NH2; N-terminus assumed)?
A: completely degraded only after [1]: 14 days; clinical score of ocular inflammation, mean score (mean±SEM) ([2]; 0.015 mg/kg intravenous): 2.3±0.3; clinical score of ocular inflammation, median ([2]; 0.015 mg/kg intravenous): 2; clinical score of ocular inflammation, mean score (mean±SEM) ([2]; 0.18 mg/kg intravenous): 2.4±0.3; clinical score of ocular inflammation, median ([2]; 0.18 mg/kg intravenous): 2; clinical score of ocular inflammation, mean score (mean±SEM) ([2]; 1.80 mg/kg intravenous): 2.1±0.3; clinical score of ocular inflammation, median ([2]; 1.80 mg/kg intravenous): 2; endotoxin-induced inflammation in the anterior chamber (conclusion) ([2]; single intravenous injection, SEQ ID NO: 197 at 2 mg/kg, SEQ ID NO: 172 at 0.015, 0.18, 1.80 mg/kg): also reduced the endotoxin-induced inflammation
